Test results as given in the supplement of paper PMC10307832.

Tests used:
Test in all cases: relative viability (nuclei count vs DMSO), 5 days (fraction); higher = more cells survive
HCC-15 = tested on: HCC-15
Outline: (§1)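 Relative viability equals treated-well nuclei counts divided by vehicle-well nuclei counts. Counts came from 4× images of lung cancer cell lines grown in 1536-well plates for 5 days after pin-tool dosing on the day after seeding. Dosing used one drug alone or a fixed anchor-drug dose plus five library-drug doses (not always all listed) in √10 steps, and values are medians of duplicate plates.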

LOU-NH91 = tested on: LOU-NH91
Outline: as §1

NCI-H1755 = tested on: NCI-H1755
Outline: as §1

HCC-366 = tested on: HCC-366
Outline: as §1

NCI-H838 = tested on: NCI-H838
Outline: as §1

NCI-H460 = tested on: NCI-H460
Outline: as §1

CAL-12T = tested on: CAL-12T
Outline: as §1

NCI-H1355 = tested on: NCI-H1355
Outline: as §1

NCI-H441 = tested on: NCI-H441
Outline: as §1

NCI-H358 = tested on: NCI-H358
Outline: as §1

NCI-H1975 = tested on: NCI-H1975
Outline: as §1

BEN = tested on: BEN
Outline: as §1

NCI-H1650 = tested on: NCI-H1650
Outline: as §1

NCI-H2085 = tested on: NCI-H2085
Outline: as §1

EKVX = tested on: EKVX
Outline: as §1

NCI-H1734 = tested on: NCI-H1734
Outline: as §1

NCI-H1395 = tested on: NCI-H1395
Outline: as §1

NCI-H1437 = tested on: NCI-H1437
Outline: as §1

HCC-44 = tested on: HCC-44
Outline: as §1

LCLC-103H = tested on: LCLC-103H
Outline: as §1

NCI-H2342 = tested on: NCI-H2342
Outline: as §1

NCI-H1651 = tested on: NCI-H1651
Outline: as §1

NCI-H2023 = tested on: NCI-H2023
Outline: as §1

## COc1cc(N2CCC(C(N)=O)CC2)ccc1Nc1nc(N)c(Cl)c(Nc2ccccc2S(=O)(=O)C(C)C)n1 [HG-5-88-01] + O=C(c1cc(Cc2n[nH]c(=O)c3ccccc23)ccc1F)N1CCN(C(=O)C2CC2)CC1 [Olaparib] (partner 8 µM)
HCC-15; first compound 0.04 µM
  relative viability: 0.738
HCC-15; first compound 0.1265 µM
  relative viability: 0.616
HCC-15; first compound 0.4 µM
  relative viability: 0.883
HCC-15; first compound 1.265 µM
  relative viability: 0.707
HCC-15; first compound 4 µM
  relative viability: 0.7
LOU-NH91; first compound 0.04 µM
  relative viability: 0.861
LOU-NH91; first compound 0.1265 µM
  relative viability: 0.882
LOU-NH91; first compound 0.4 µM
  relative viability: 0.733
LOU-NH91; first compound 1.265 µM
  relative viability: 0.514
LOU-NH91; first compound 4 µM
  relative viability: 0.618
NCI-H1755; first compound 0.04 µM
  relative viability: 0.811
NCI-H1755; first compound 0.1265 µM
  relative viability: 0.869
NCI-H1755; first compound 0.4 µM
  relative viability: 0.874
NCI-H1755; first compound 1.265 µM
  relative viability: 0.849
NCI-H1755; first compound 4 µM
  relative viability: 0.928
HCC-366; first compound 0.04 µM
  relative viability: 0.385
HCC-366; first compound 0.1265 µM
  relative viability: 0.391
HCC-366; first compound 0.4 µM
  relative viability: 0.352
HCC-366; first compound 1.265 µM
  relative viability: 0.39
HCC-366; first compound 4 µM
  relative viability: 0.38
NCI-H838; first compound 0.04 µM
  relative viability: 0.793
NCI-H838; first compound 0.1265 µM
  relative viability: 0.766
NCI-H838; first compound 0.4 µM
  relative viability: 0.67
NCI-H838; first compound 1.265 µM
  relative viability: 0.557
NCI-H838; first compound 4 µM
  relative viability: 0.452
NCI-H460; first compound 0.04 µM
  relative viability: 0.415
NCI-H460; first compound 0.1265 µM
  relative viability: 0.498
NCI-H460; first compound 0.4 µM
  relative viability: 0.388
NCI-H460; first compound 1.265 µM
  relative viability: 0.356
NCI-H460; first compound 4 µM
  relative viability: 0.503
CAL-12T; first compound 0.04 µM
  relative viability: 0.733
CAL-12T; first compound 0.1265 µM
  relative viability: 0.779
CAL-12T; first compound 0.4 µM
  relative viability: 0.787
CAL-12T; first compound 1.265 µM
  relative viability: 0.667
CAL-12T; first compound 4 µM
  relative viability: 0.319
NCI-H1355; first compound 0.04 µM
  relative viability: 0.833
NCI-H1355; first compound 0.1265 µM
  relative viability: 0.768
NCI-H1355; first compound 0.4 µM
  relative viability: 0.74
NCI-H1355; first compound 1.265 µM
  relative viability: 0.706
NCI-H1355; first compound 4 µM
  relative viability: 0.584
NCI-H441; first compound 0.04 µM
  relative viability: 0.557
NCI-H441; first compound 0.1265 µM
  relative viability: 0.639
NCI-H441; first compound 0.4 µM
  relative viability: 0.701
NCI-H441; first compound 1.265 µM
  relative viability: 0.574
NCI-H441; first compound 4 µM
  relative viability: 0.434
NCI-H358; first compound 0.04 µM
  relative viability: 0.569
NCI-H358; first compound 0.1265 µM
  relative viability: 0.568
NCI-H358; first compound 0.4 µM
  relative viability: 0.545
NCI-H358; first compound 1.265 µM
  relative viability: 0.242
NCI-H358; first compound 4 µM
  relative viability: 0.466
NCI-H1975; first compound 0.04 µM
  relative viability: 0.834
NCI-H1975; first compound 0.1265 µM
  relative viability: 0.822
NCI-H1975; first compound 0.4 µM
  relative viability: 0.782
NCI-H1975; first compound 1.265 µM
  relative viability: 0.715
NCI-H1975; first compound 4 µM
  relative viability: 0.419
BEN; first compound 0.04 µM
  relative viability: 1.2
BEN; first compound 0.1265 µM
  relative viability: 1.16
BEN; first compound 0.4 µM
  relative viability: 1.13
BEN; first compound 1.265 µM
  relative viability: 0.683
BEN; first compound 4 µM
  relative viability: 0.993
NCI-H1650; first compound 0.04 µM
  relative viability: 0.729
NCI-H1650; first compound 0.1265 µM
  relative viability: 0.753
NCI-H1650; first compound 0.4 µM
  relative viability: 0.969
NCI-H1650; first compound 1.265 µM
  relative viability: 0.65
NCI-H1650; first compound 4 µM
  relative viability: 0.837
NCI-H2085; first compound 0.04 µM
  relative viability: 0.853
NCI-H2085; first compound 0.1265 µM
  relative viability: 0.753
NCI-H2085; first compound 0.4 µM
  relative viability: 0.833
NCI-H2085; first compound 1.265 µM
  relative viability: 0.765
NCI-H2085; first compound 4 µM
  relative viability: 0.871
EKVX; first compound 0.04 µM
  relative viability: 0.896
EKVX; first compound 0.1265 µM
  relative viability: 0.955
EKVX; first compound 0.4 µM
  relative viability: 0.813
EKVX; first compound 4 µM
  relative viability: 0.633
NCI-H1734; first compound 0.04 µM
  relative viability: 0.681
NCI-H1734; first compound 0.1265 µM
  relative viability: 0.583
NCI-H1734; first compound 0.4 µM
  relative viability: 0.642
NCI-H1734; first compound 1.265 µM
  relative viability: 0.54
NCI-H1734; first compound 4 µM
  relative viability: 0.558
NCI-H1395; first compound 0.04 µM
  relative viability: 0.499
NCI-H1395; first compound 0.1265 µM
  relative viability: 0.467
NCI-H1395; first compound 0.4 µM
  relative viability: 0.48
NCI-H1395; first compound 1.265 µM
  relative viability: 0.472
NCI-H1395; first compound 4 µM
  relative viability: 0.487
NCI-H1437; first compound 0.04 µM
  relative viability: 0.645
NCI-H1437; first compound 0.1265 µM
  relative viability: 0.609
NCI-H1437; first compound 0.4 µM
  relative viability: 0.607
NCI-H1437; first compound 1.265 µM
  relative viability: 0.631
NCI-H1437; first compound 4 µM
  relative viability: 0.557
HCC-44; first compound 0.04 µM
  relative viability: 0.912
HCC-44; first compound 0.1265 µM
  relative viability: 0.957
HCC-44; first compound 0.4 µM
  relative viability: 0.934
HCC-44; first compound 1.265 µM
  relative viability: 0.921
HCC-44; first compound 4 µM
  relative viability: 0.919
LCLC-103H; first compound 0.04 µM
  relative viability: 0.714
LCLC-103H; first compound 0.1265 µM
  relative viability: 0.748
LCLC-103H; first compound 0.4 µM
  relative viability: 0.697
LCLC-103H; first compound 1.265 µM
  relative viability: 0.654
LCLC-103H; first compound 4 µM
  relative viability: 0.719
NCI-H2342; first compound 0.04 µM
  relative viability: 0.449
NCI-H2342; first compound 0.1265 µM
  relative viability: 0.538
NCI-H2342; first compound 0.4 µM
  relative viability: 0.473
NCI-H2342; first compound 4 µM
  relative viability: 0.474
NCI-H1651; first compound 0.04 µM
  relative viability: 0.189
NCI-H1651; first compound 0.1265 µM
  relative viability: 0.199
NCI-H1651; first compound 0.4 µM
  relative viability: 0.176
NCI-H1651; first compound 1.265 µM
  relative viability: 0.234
NCI-H1651; first compound 4 µM
  relative viability: 0.164
NCI-H2023; first compound 0.04 µM
  relative viability: 0.515
NCI-H2023; first compound 0.1265 µM
  relative viability: 0.519
NCI-H2023; first compound 0.4 µM
  relative viability: 0.445
NCI-H2023; first compound 1.265 µM
  relative viability: 0.441
NCI-H2023; first compound 4 µM
  relative viability: 0.277
